Literature values as cited in patent US20050123607A1, “Pharmaceutical formulation of valaciclovir” (priority 2003, published 2005).

How the values were obtained:
[1] = oral administration
[2] = especially in its salt form

Compound: CC(C)[C@H](N)C(=O)OCCOCn1cnc2c(=O)[nH]c(N)nc21 [valaciclovir]
- absorption from the gastrointestinal tract / bioavailability (in words) [1]: much improved bioavailability
- solubility (in words) [2]: very soluble
